Where “and” joins values, the source holds several entries; their conditions need not be identical. Identical values can stand only once. Like-named read-outs stand apart in the source and are kept apart here. Values belong to the compound of their own block, whether it stands above or below them.
What was measured:
[1] = parameters: method as in PMID 21189429, PMID 6643696; conditions: under fed conditions; cited from earlier work
[2] = Study 1 safety: treatment-emergent adverse events; conditions: drug administered alone; n = 14
Description: (§2) For each study, the participants were enrolled at different individual study centers in the US. Study 1 (rifampin study, NCT01395927) was a single-center, open-label, fixed-sequence study to evaluate the effects of steady-state rifampin on the single-dose PK of canagliflozin. The study consisted of a screening period of 20 days (from day –21 to ‒2), a 14-day open-label period (from day –1 to 13), followed by an end-of-study period (5 – 7 days) consisting of follow-up assessments. Participants received canagliflozin 300 mg (tablet) q.d. on day 1 and rifampin 600 mg q.d. (as two 300 mg capsules) on days 4 – 9. On day 10, canagliflozin (300 mg) plus rifampin (600 mg) was administered, followed by rifampin alone (600 mg) administration on days 11 – 12. The study drugs were administered under a fasted state.
(§3) Safety and tolerability were monitored throughout all three studies by evaluation of the incidence and the type of treatment-emergent adverse events (TEAEs), and change from baseline in: clinical laboratory tests (including hematology, serum chemistry, urinalysis, and urine uric acid analysis (study 2 only)), physical examination of all body systems except genitalia and breast (by a study physician), body weight, height, and BMI, vital signs (including systolic and diastolic blood pressure, heart rate, and body temperature), and 12-lead electrocardiographys (ECGs) (including cardiac rhythm, waveform morphology, and interval duration).
(§4) Results of the clinical laboratory parameters and vital signs were summarized using descriptive statistics.

[3] = Study 1: effect of steady-state rifampin on single-dose pharmacokinetics of canagliflozin, M7 and M5; conditions: day 10 (with canagliflozin, fasted) vs day 9 (alone, fed)
Description: as §2
(§5) Study 1: Venous blood (4 mL each) samples for the determination of canagliflozin, M7, and M5 plasma concentrations were collected pre-dose, and up to 72 hours post-dose (at 0.5, 1, 1.5, 2, 3, 4, 6, 8, 10, 12, 16, 24, 48, and 72 hours) on days 1 and 10. Urine samples for the determination of canagliflozin, M7, and M5 in urine were collected over the intervals of 0 – 4 hours, 4 – 12 hours, 12 – 24 hours, 24 – 48 hours, and 48 – 72 hours on days 1 and 10. Venous blood samples (2 mL each) for the determination of rifampin plasma concentrations were collected 2 hours after rifampin administration on days 9 and 10.
(§6) Blood samples for canagliflozin, M7 and M5, rifampin and probenecid were centrifuged (10 minutes at 1,300 rpm), and the obtained plasma was stored at or below –20 °C. […] Urine samples were collected in polyethylene containers for the PK evaluation of canagliflozin, M7, and M5. Two aliquots (3 mL in study 1 and 2 mL in study 2) of urine sample were transferred into polyethylene tubes and were stored at or below –20 °C.
(§7) The EDTA plasma samples were analyzed to determine the concentrations of canagliflozin with a validated [29, 30] liquid chromatography coupled to tandem mass spectrometry/mass spectrometry (LC-MS/MS) method (Frontage, Shanghai, China). A ^13C6 analogue of canagliflozin was used as internal standard (IS). Briefly, the sample was processed using a liquid-liquid extraction with tert-butyl methyl ether. The LC phase used a 5 cm × 4.6 mm column packed with XBridge C18 (Waters, Milford, MA, USA) with a mobile phase of ammonium acetate 0.01M (30%) and methanol (70%), and a flow rate of 1.2 mL/min. Quantification was achieved by MS/MS detection with an API4000, equipped with TurboIonSpray (TIS) interface (AB Sciex, Framingham, MA, USA), in the positive ion multiple reaction monitoring (MRM) mode. Canagliflozin and IS were monitored at mass transitions m/z 462.1 → 267.0 and m/z 468.1 → 273.0, respectively. The quantitation range was 5.0 – 10,000 ng/mL.
(§8) Plasma (validated) and urine (qualified) concentrations of M7 and M5 were also determined using ^13C6-canagliflozin as IS at Frontage Laboratories (Shanghai) Co., Ltd. Samples underwent protein precipitation, with acetonitrile. The LC-MS/MS quantitation was done with the same equipment as for canagliflozin. The LC phase used a 5 cm × 4.6 mm column packed with XBridge C18 with a mobile phase of ammonium acetate 0.01M (pH 4) and methanol at ratio 40/60 (v/v) at a flow rate of 1.2 mL/min. After 3.5 minutes, the composition was changed to 98% methanol for 1 minute to flush the column. Using positive ion MRM on an API4000, equipped with TIS, both metabolites were measured at mass transition m/z 638.2 → 427. The quantitation range was 5.0 – 10,000 ng/mL for both metabolites in plasma, and 100 – 100,000 ng/mL in urine.
(§9) Pharmacokinetic analyses of plasma and urine concentrations was done by non-compartmental method using validated WinNonlin® software Version 5.2.1 (Pharsight Corporation, Mountain View, CA, USA).

[4] = Study 2: effect of multiple-dose probenecid on steady-state pharmacokinetics of canagliflozin, M7 and M5; format: in vivo, human; conditions: for trough plasma concentration, mean (SD): canagliflozin 300 mg q.d.; for % Ae (dose): cumulative amount excreted into the urine: corrected for molecular weight when necessary; for tmax.ss: median (range)
Description: (§1) The study consisted of a 19-day screening period (from day –21 to –3), a 20 day open-label period (from day –2 to 18), followed by an end-of-study period (7 – 10 days). […] Participants received study drugs under fasted state on days 14 and 17. On all other study days, participants received a standardized meal 1 hour after the study drug administration. Diet was standardized in order to stabilize uric acid levels, and participants were advised not to consume highly purine-enriched foods.

[5] = Study 2 safety: treatment-emergent adverse events; format: in vivo, human
Description: as §1

[6] = Study 3 safety: treatment-emergent adverse events; format: in vivo, human
Description: (§10) The study consisted of a 3-week screening period (from day –22 to –2), an 11 day open-label period (from day –1 to 10), followed by an end-of-study period consisting of 2 follow-up assessments occurring from 7 to 10 days and again from 14 to 18 days after the last dose of the study drug administration. Canagliflozin 300 mg (tablet) q.d. was administered on days 1 through 8 under fasted state.
as §3

[7] = Safety and tolerability across the three studies; format: in vivo, human
Description: as §3, §4

[8] = in vivo
Description: as §2, §5, §6, §7, §8, §9

[9] = human, in vivo
Description: as §10
Study 3: Venous blood (4 mL each) samples for the determination of canagliflozin plasma concentration were collected at pre-dose on days 2, 3, 4, 5, and 6, and at pre-dose and up to 24 hours post-dose (at 0.5, 1, 1.5, 2, 3, 4, 5, 6, 10, 12, 16, and 24 hours) on days 7 and 8.
as §6, §7
Pharmacokinetic analyses of plasma and urine concentrations was done by non-compartmental method using validated WinNonlin® software Version 5.2.1 (Pharsight Corporation, Mountain View, CA, USA). […] The assessed pharmacokinetic parameters of canagliflozin, M7, and M5 in study 2, and of canagliflozin in study 3 were: Cmax during a dosing interval at steady state (Cmax.ss), observed plasma concentration before dosing or at the end of a dosing interval (Ctrough; only for canagliflozin), tmax during a dosing interval at steady state (tmax.ss), and AUC during a dosing interval at steady state (AUCτ.ss). Additionally, M/P ratio (corrected for the differences in molecular weights) for Cmax.ss, AUCτ.ss, Ae during a collection interval (Aet1-t2), %Ae dose, and CLR were calculated for study 2.
A mixed-effects model was fitted to the log-transformed data of AUC or Cmax as dependent variables, treatment (with or without coadministration of the other drug) as a fixed effect, and participant as a random effect. The estimated least-square means and intra-participant variability from the mixed-effect model was used to construct 90% confidence interval (CI) for the difference in means of AUC or Cmax on the log-scale between the two treatments. The limits of the CIs were retransformed using antilogarithms to obtain the 90% CI for the ratio of the geometric mean AUC or Cmax.

[10] = in vivo; remark: listed apart in the source
Description: as §2, §3, §4

P-gp = system: P-gp; parameters: method as in unpublished data; conditions: MDR1-expressing MDCK cells; ref unpublished data; cited from earlier work
P-glycoprotein (P-gp) = system: P-glycoprotein (P-gp); parameters: method as in earlier work; conditions: in vitro experiments; cited from earlier work
[11] = system: multidrug resistance protein 2 (MRP2); parameters: method as in earlier work; conditions: in vitro experiments; cited from earlier work
OATP1B1 = conditions: in vitro studies; no reference given; cited from earlier work
OAT1 = conditions: in vitro studies; no reference given; cited from earlier work
OAT3 = conditions: no reference given; cited from earlier work
[12] = parameters: method as in PMID 23670707; conditions: cited from earlier work
[13] = parameters: method as in PMID 22226086, PMID 22492586; conditions: canagliflozin 300 mg b.i.d., cited from earlier work
[14] = canagliflozin + probenecid (test), geometric mean, n = 11
[15] = canagliflozin + probenecid vs canagliflozin alone
[16] = canagliflozin + probenecid, arithmetic mean (SD)
[17] = canagliflozin alone (reference), geometric mean, n = 11
[18] = canagliflozin alone, arithmetic mean (SD)
[19] = probenecid coadministration vs canagliflozin alone
[20] = canagliflozin and probenecid coadministration, 1/12

increase in plasma rifampin concentration at 2 hours [3]: 24%
Compound: CO[C@H]1/C=C/O[C@@]2(C)Oc3c(C)c(O)c4c(O)c(c(/C=N/N5CCN(C)CC5)c(O)c4c3C2=O)NC(=O)/C(C)=C\C=C\[C@H](C)[C@H](O)[C@@H](C)[C@@H](O)[C@@H](C)[C@H](OC(C)=O)[C@@H]1C [rifampin]
reduction of rifampin absorption [1]: 30% | participants with TEAEs [2]: 50%

Compound: Canagliflozin
AUC∞.ss ([4]; canagliflozin 300 mg q.d. + probenecid 500 mg b.i.d. (day 17), arithmetic mean (SD), n = 12): 26,225 (5261) ng×h/mL | AUC∞.ss ([4]; canagliflozin 300 mg q.d. alone (day 14), arithmetic mean (SD), n = 12): 21,861 (4290) ng×h/mL | trough plasma concentration, mean (SD) ([4]; day 13): 381 (110) ng/mL | trough plasma concentration, mean (SD) ([4]; day 14): 366 (117) ng/mL | trough plasma concentration, mean (SD) ([4]; day 15): 358 (110) ng/mL | AUC∞.ss [4, 14]: 26,011.71 ng×h/mL | Cmax.ss [4, 14]: 3,008.66 ng/mL | AUCτ.ss, estimated ratio (test/reference) of geometric means (90% CI) [4, 15]: 120.74 (116.37; 125.27) % | AUC∞.ss, estimated ratio (test/reference) of geometric means (90% CI) [4, 15]: 120.74 (116.37; 125.27) % | Cmax.ss, estimated ratio (test/reference) of geometric means (90% CI) [4, 15]: 113.37 (100.37; 128.06) % | CLR (renal clearance, Ae24/AUC24) [4, 16]: 0.0569 (0.00944) L/h | % Ae (dose): cumulative amount excreted into the urine [4, 16]: 0.495 (0.136) % dose | tmax.ss ([4]; canagliflozin + probenecid): 1.67 (1.42 – 5.92) h | AUC∞.ss [4, 17]: 21,543.95 ng×h/mL | Cmax.ss [4, 17]: 2,653.85 ng/mL | CLR (renal clearance, Ae24/AUC24) [4, 18]: 0.0868 (0.0297) L/h | % Ae (dose): cumulative amount excreted into the urine [4, 18]: 0.609 (0.217) % dose | tmax.ss ([4]; canagliflozin alone): 1.92 (1.42– 3.92) h | Cmax.ss ([4]; plasma, canagliflozin 300 mg q.d. + probenecid 500 mg b.i.d. (day 17), arithmetic mean (SD), n = 12): 3,105 (680) ng/mL | Cmax.ss ([4]; plasma, canagliflozin 300 mg q.d. alone (day 14), arithmetic mean (SD), n = 12): 2,699 (814) ng/mL | decrease in mean CLR [4, 19]: ~ 34% | increase in AUCτ.ss (systemic exposure) [4, 19]: 21% | increase in Cmax.ss [4, 19]: 13% and ~ 13% | participants with headache ([5]; canagliflozin alone, 2/14): 14.3% | participants with ≥ 1 TEAE ([5]; canagliflozin alone, 4/14): 28.6% | participants with abdominal discomfort [5, 20]: 8.3% | participants with diarrhea [5, 20]: 8.3% | participants with headache [5, 20]: 8.3% | participants with muscle twitching [5, 20]: 8.3% | participants with musculoskeletal pain [5, 20]: 8.3% | participants with pruritis [5, 20]: 8.3% | participants with urethral pain [5, 20]: 8.3% | participants with ≥ 1 TEAE ([5]; canagliflozin and probenecid coadministration, 5/12): 41.7% | participants with diarrhea ([6]; canagliflozin alone, 2/18): 11.1% | participants with oropharyngeal pain ([6]; canagliflozin alone, 2/18): 11.1% | participants reporting TEAEs ([6]; canagliflozin alone, 6/18): 33.3% | participants with flushing ([6]; canagliflozin and cyclosporine A coadministration, 15/18): 83.3% | participants reporting TEAEs ([6]; canagliflozin and cyclosporine A coadministration, 17/18): 94.4% | changes in clinical laboratory values, vital signs, physical examinations, or ECGs ([7]; any of the three studies): No consistent, clinically relevant changes | deaths, serious TEAEs, or discontinuations due to TEAEs ([7]; any of the three studies): No deaths, serious TEAEs, or discontinuations due to TEAEs | tolerability ([7]; canagliflozin 300 mg coadministered with rifampin, probenecid, and cyclosporine A, healthy participants): generally well-tolerated | AUC∞ ([8]; human): 20,938.95 ng×h/mL | CLR (renal clearance, Ae0–72/AUC0–72h) ([8]; human): 0.0849 (0.0318) L/h | Cmax ([8]; human): 2,358.29 ng/mL | t1/2 ([8]; human): 12.9 (2.42) h | tmax ([8]; human): 2.00 (1.00 – 4.00) h | AUC∞ ([8]; human, 300 mg): 21,695 (6151) ng×h/mL | Cmax ([8]; human, 300 mg): 2,474 (805) ng/mL | Ae (% dose): cumulative amount excreted into the urine [8]: 0.578 (0.180) % dose | AUCτ.ss [9]: 22,243.50 ng×h/mL | Cmax.ss [9]: 2,864.03 ng/mL | tmax.ss [9]: 2.00 (1.00 – 3.00) h | AUCτ.ss ([9]; 300 mg): 22,158 (4203) ng×h/mL | Cmax.ss ([9]; 300 mg): 2,887 (735) ng/mL | participants with TEAEs [10]: 21.4% | participants with abdominal discomfort [10]: 7.1% | participants with polyuria [10]: 7.1% | participants with thirst [10]: 7.1% | P-gp substrate status (P-gp): P-gp substrate | basal-to-apical/apical-to-basal efflux ratio (P-gp): 2.0 | substrate of P-glycoprotein (P-gp) (P-glycoprotein (P-gp)): substrate | substrate of MRP2 [11]: substrate | substrate of OATP1B1 (OATP1B1): not a substrate | substrate of OAT1 (OAT1): not a substrate | substrate of OAT3 (OAT3): not a substrate | canagliflozin dose excreted in urine as unchanged canagliflozin [12]: less than 1% | tolerability ([13]; 2-week multiple-dose study and 12-week dose-ranging study in T2DM): well-tolerated | plasma AUCτ.ss higher than with the 300 mg q.d. dose [13]: 93% | plasma Cmax.ss higher than with the 300 mg q.d. dose [13]: 32%
